Test results reported in patent US8900644B2, “Oral care compositions containing compounds from magnolia and hops extracts” (Colgate-Palmolive Company, priority 2004, dated 2014).

Experiments:
Test in all cases: in vitro test Minimal Inhibitory Concentration (MIC)
Assay type in all cases: cell-based
A. naeslundii = tested on: A. naeslundii
Source text: (§1) For example, the oral compositions of the present invention are bactericidal against representative oral bacteria, such as S. mutans, F. nucleatum, V. parvula, A. naeslundii, and P. gingivitis as measured by the in vitro test Minimal Inhibitory Concentration (MIC). The oral composition of the present invention is applied to the oral surfaces in the oral cavity, and promotes overall oral health, including preventing plaque formation, caries formation, calculus formation, halitosis, gingivitis, and periodontitis, for example. For example, in an embodiment of the present invention, where an oral care composition comprises an orally acceptable delivery carrier and a safe and effective amount of the combination of an extract of hops and an extract of magnolia, it has been observed that the antibacterial activity is highly efficacious against both gram-positive and gram-negative bacteria.
(§2) It should be noted that any plant from the Magnoliaceae family is suitable for the present invention and may be used in alternate embodiments. Preferably such that the extract comprises an antimicrobially effective concentration of a compound selected from the group consisting of magnolol, honokiol, tetrahydromagnolol, tetrahydrohonokiol, and mixtures thereof.

F. nucleatum = tested on: F. nucleatum
Source text: as §1, §2

P. gingivitis = tested on: P. gingivitis
Source text: as §1, §2

S. mutans = tested on: S. mutans
Source text: as §1, §2

V. parvula = tested on: V. parvula
Source text: as §1, §2

Measured: bactericidal properties in Minimal Inhibitory Concentration (MIC) test

C=CCc1ccc(O)c(-c2ccc(O)c(CC=C)c2)c1 [honokiol]
bactericidal: all assays above

C=CCc1ccc(O)c(-c2cc(CC=C)ccc2O)c1 [magnolol]
bactericidal: all assays above

CCCc1ccc(O)c(-c2ccc(O)c(CCC)c2)c1 [tetrahydrohonokiol]
bactericidal: all assays above

CCCc1ccc(O)c(-c2cc(CCC)ccc2O)c1 [tetrahydromagnolol]
bactericidal: all assays above
